How the values were obtained:
[1] = molecular target: T1, recombinant BACE2 protein (Homo sapiens, UniProt Q9Y5Z0); test: BACE2 biochemical FRET based assay; conditions: BACE2 0.4 μg/ml, 10 μM substrate, pH 5.0, 450 min; read-out: BACE2 Biochemical FRET based assay pIC50 (converted)
T1 sequence (Q9Y5Z0 63-518): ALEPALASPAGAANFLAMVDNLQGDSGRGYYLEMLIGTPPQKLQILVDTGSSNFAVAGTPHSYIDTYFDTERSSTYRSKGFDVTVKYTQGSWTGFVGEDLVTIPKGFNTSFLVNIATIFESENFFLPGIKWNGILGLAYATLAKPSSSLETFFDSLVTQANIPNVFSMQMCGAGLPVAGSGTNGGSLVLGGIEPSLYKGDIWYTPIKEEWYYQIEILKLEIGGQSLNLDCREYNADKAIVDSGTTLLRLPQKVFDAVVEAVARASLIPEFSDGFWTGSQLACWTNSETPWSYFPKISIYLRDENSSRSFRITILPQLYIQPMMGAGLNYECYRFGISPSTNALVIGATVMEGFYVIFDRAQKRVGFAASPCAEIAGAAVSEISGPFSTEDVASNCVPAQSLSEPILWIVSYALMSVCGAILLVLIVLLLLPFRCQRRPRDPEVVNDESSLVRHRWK
Text: This assay is a Fluorescence Resonance Energy Transfer Assay (FRET) based assay. The substrate for this assay contains the ‘Swedish’ Lys-Met/Asn-Leu mutation of the amyloid precursor protein (APP) beta-secretase cleavage site. This substrate also contains two fluorophores: (7-methoxycoumarin-4-yl) acetic acid (Mca) is a fluorescent donor with excitation wavelength at 320 nm and emission at 405 nm and 2,4-Dinitrophenyl (Dnp) is a proprietary quencher acceptor. […] Upon cleavage by the beta-secretase, the fluorophore Mca is separated from the quenching group Dnp, restoring the full fluorescence yield of the donor. The increase in fluorescence is linearly related to the rate of proteolysis.
Briefly in a 384-well format recombinant BACE2 protein in a final concentration of 0.4 μg/ml is incubated for 450 minutes at room temperature with 10 μM substrate in incubation buffer (50 mM Citrate buffer pH 5.0, 0.05% PEG, no DMSO) in the absence or presence of compound. Next the amount of proteolysis is directly measured by fluorescence measurement at T=0 and T=450 (excitation at 320 nm and emission at 405 nm). Results are expressed in RFU (Relative Fluorescence Units), as difference between T450 and T0.
A best-fit curve is fitted by a minimum sum of squares method to the plot of % Controlmin versus compound concentration. From this an IC50 value (inhibitory concentration causing 50% inhibition of activity) can be obtained. • LC=Median of the low control values • =Low control: Reaction without enzyme • HC=Median of the High control values • =High Control: Reaction with enzyme • % Effect=100−[(sample−LC)/(HC−LC)*100] • % Control=(sample/HC)*100 • % Controlmin=(sample−LC)/(HC−LC)*100

[2] = tested on: brain levels of soluble Aβ40 and Aβ42; test: In vivo Aβ lowering, brain levels of soluble Aβ by MSD electrochemiluminescence; design: species or system mouse; conditions: untreated control = 100
Text: To determine whether acute administration of an Aβ lowering agent would reduce Aβ levels in vivo, non-transgenic rodents, e.g. mice or rats were used. Animals treated with the Aβ lowering agent were examined and compared to those untreated or treated with vehicle and brain levels of soluble Aβ42, Aβ40, Aβ38, and Aβ37 were quantitated by Meso Scale Discovery's (MSD) electrochemiluminescence detection technology. Treatment periods varied from hours (h) to days and were adjusted based on the results of the Aβ lowering once a time course of onset of effect could be established.
A typical protocol for measuring Aβ lowering in vivo is shown but it is only one of many variations that could be used to optimize the levels of detectable Aβ. For example, Aβ lowering compounds were formulated in 20% of Captisol® (a sulfo-butyl ether of β-cyclodextrin) in water or 20% hydroxypropyl β cyclodextrin. The Aβ lowering agents were administered as a single oral dose or by any acceptable route of administration to overnight fasted animals. After 4 h, the animals were sacrificed and Aβ levels were analysed.
Blood was collected by decapitation and exsanguinations in EDTA-treated collection tubes. Blood was centrifuged at 1900 g for 10 minutes (min) at 4° C. and the plasma recovered and flash frozen for later analysis. The brain was removed from the cranium and hindbrain. The cerebellum was removed and the left and right hemisphere were separated. The left hemisphere was stored at −18° C. for quantitative analysis of test compound levels. The right hemisphere was rinsed with phosphate-buffered saline (PBS) buffer and immediately frozen on dry ice and stored at −80° C. until homogenization for biochemical assays.
Mouse brains from non-transgenic animals were resuspended in 8 volumes of 0.4% DEA (diethylamine)/50 mM NaCl containing protease inhibitors (Roche-11873580001 or 04693159001) per gram of tissue, e.g. for 0.158 g brain, add 1.264 ml of 0.4% DEA. All samples were homogenized in the FastPrep-24 system (MP Biomedicals) using lysing matrix D (MPBio #6913-100) at 6 m/s for 20 seconds. Homogenates were centrifuged at 20800×g for 5 min and supernatants collected. Supernatants were centrifuged at 221.300×g for 50 min. The resulting high speed supernatants were then transferred to fresh eppendorf tubes. Nine parts of supernatant were neutralized with 1 part 0.5 M Tris-HCl pH 6.8 and used to quantify Aβ.
To quantify the amount of Aβ42, Aβ40, Aβ38, and Aβ37 in the soluble fraction of the brain homogenates, simultaneous specific detection of Aβ42, Aβ40, Aβ38, and Aβ37 was performed using MSD's electro-chemiluminescence multiplex detection technology. In this assay purified monoclonal antibodies specific for Abeta37 (JRD/Aβ37/3), Abeta38 (J&JPRD/Aβ38/5), Abeta40 (JRF/cAβ40/28), and Abeta42 (JRF/cAβ42/26) were coated on MSD 4-plex plates. Briefly, the standards (a dilution of synthetic Aβ42, Aβ40, Aβ38, and Aβ37) were prepared in 1.5 ml Eppendorf tube in Ultraculture, with final concentrations ranging from 10000 to 0.3 pg/m. The samples and standards were co-incubated with Sulfo-tag labelled JRF/rAβ/2 antibody to the N-terminus of Aβ as detector antibody. 50 μl of conjugate/sample or conjugate/standards mixtures were then added to the antibody-coated plate. The plate was allowed to incubate overnight at 4° C. in order to allow formation of the antibody-amyloid complex. Following this incubation and subsequent wash steps the assay was finished by adding read buffer according to the manufacturer's instructions (Meso Scale Discovery, Gaitherburg, Md.).
The SULFO-TAG emits light upon electrochemical stimulation initiated at the electrode. MSD Sector instrument SI6000 was used for signal read-out.
The results are shown in Table 7 (value for untreated animals as control (Ctrl) was set at 100): […]

[3] = dose 10, s.c., 2 h after administration
[4] = dose 10, s.c., 4 h after administration
[5] = dose 10, p.o., 4 h after administration

Structure (SMILES)	IC50 [1] [nM]	Aβ40 (% vs Ctrl)_Mean [2, 3] [% vs Ctrl]	Aβ42 (% vs Ctrl)_Mean [2, 3] [% vs Ctrl]	Aβ40 (% vs Ctrl)_Mean [2, 4] [% vs Ctrl]	Aβ42 (% vs Ctrl)_Mean [2, 4] [% vs Ctrl]	Aβ40 (% vs Ctrl)_Mean [2, 5] [% vs Ctrl]	Aβ42 (% vs Ctrl)_Mean [2, 5] [% vs Ctrl]
Cn1cc2n(c1=O)C[C@@](C)(c1cc(NC(=O)c3ccc(C#N)cn3)ccc1F)N=C2N [Compound 1, N-{3-[(6R)-8-Amino-2,6-dimethyl-3-oxo-2,3,5,6-tetrahydroimidazo[1,5-a]pyrazin-6-yl]-4-fluorophenyl}-5-cyanopyridine-2-carboxamide]	19.5	105	105	132	109	–	–
Cc1nc(C(=O)Nc2ccc(F)c([C@]3(C)Cn4c(cn(C)c4=O)C(N)=N3)c2)co1 [Compound 3, N-{3-[(6R)-8-Amino-2,6-dimethyl-3-oxo-2,3,5,6-tetrahydroimidazo[1,5-a]pyrazin-6-yl]-4-fluorophenyl}-2-methyl-1,3-oxazole-4-carboxamide]	6.61	–	–	–	–	94	97
Cn1cc2n(c1=O)C[C@@](C)(c1cc(NC(=O)c3ccc(Cl)cn3)ccc1F)N=C2N [Compound 4, N-{3-[(6R)-8-amino-2,6-dimethyl-3-oxo-5H-imidazo[1,5-a]pyrazin-6-yl]-4-fluoro-phenyl}-5-chloro-pyridine-2-carboxamide]	4.37	–	–	121	125	–	–
